Assay results taken from patent US20100029542A1, “PROTEIN STERILISATION BY RADIATION AND ADDITION OF A STABILISING COMPOSITION” (priority 2006, published 2010).
Where two headings read alike, the source gives them in different places.

Tests used:
glucose oxidase = target: T1, glucose oxidase (Aspergillus niger, UniProt P13006); test: Activity recovery of glucose oxidase in dry formulations following gamma irradiation; type: physicochemical; details: for Enzyme activity remaining after gamma-irradiation: glucose oxidase 350 μg mL^−1 prior to drying, dry, 25-40 kGy, ambient temperature
T1 construct: purchased Biocatalysts G575P
Method: (§1) In each example, an aqueous solution of a protein was prepared with selected additives in an Eppendorf tube or in a glass vial. Water was removed from the formulation by drying under a stream of nitrogen at 30° C. and subsequent incubation at atmospheric pressure in the presence of a dessicant. The Eppendorf tubes or the glass vials were sealed and delivered to an industrial sterilisation service for gamma irradiation, with a dose range typical for sterile medical products. The gamma-irradiated samples were reconstituted on their return and analysed for protein activity or structural integrity. The results were compared with those achieved using control (i.e. non-irradiated) samples.
(§2) The dry samples (approx. 20 μg in an Eppendorf tube) were gamma-irradiated by an industry-standard commercial sterilising service provided by Isotron PLC (Swindon, Wilts, UK), using a Cobalt 60 gamma source at ambient temperature. The radiation dose was in the range of 25-40 kGy.
The original solutions (i.e. solutions prior to drying) contained 350 μg mL^−1 of glucose oxidase and typically the total of 100 mM of protective compounds (i.e. 100 mM in case of a single compound, 50 mM+50 mM in case of two compounds, 33.3 mM+33.3 mM+33.3 mM in the case of three compounds etc.). The solutions were dried and gamma irradiated. Following the gamma irradiation, the samples, both pre- and post-gamma irradiated, were assayed for glucose oxidase activity. This was performed according to the following procedure:
Water was added to the sample to achieve 350 μg mL^−1 of glucose oxidase. 50 μL of the solution was added to 50 mL of deionised water. The following solutions were then added: • 10 mL of reagent mix (5 parts of 0.1 M sodium phosphate, pH 6+4 parts 2% w/w starch+1 part of 1 mg/mL lactoperoxidase enzyme); • 5 mL of 100 mM potassium iodide; and • 5 mL of 20% w/w glucose solution.
These were mixed together quickly. Time=0 was counted from the addition of the glucose. After 5 min, 1 ml of 5 M aq. hydrochloric acid was added to stop the reaction. The absorbance was then read at 630 nm using a Unicam UV-visible spectrophotometer (Type: Helios gamma). If the colour intensity was too great to allow an accurate reading, the sample was diluted with a defined volume of deionised water to bring the colour back on scale. The results were expressed as percentage recovery, by reference to the absorbance measured in the pre-gamma irradiation samples.

human growth hormone [1] = target: T2, human growth hormone (Homo sapiens, UniProt P01241); test: Recovery of structural integrity of human growth hormone in dry formulations following gamma irradiation (HPLC); type: physicochemical; details: Table 7, singlet oxygen scavengers, structural integrity by HPLC, human growth hormone 2.5 mg mL^−1 prior to drying, 25-40 kGy
T2 construct: purchased National Institute of Biological Standards and Control; further samples on prescription from a GP surgery
Method: as §1, §2
Mobile phase was prepared by mixing 71 parts (by volume) of a solution of TRIS (0.05 M, in water adjusted with hydrochloric acid to a pH of 7.5) and 29 parts (by volume) of n-propylalcohol. The mobile phase was filtered prior to its use. The liquid chromatograph (Agilent 1100 series) was equipped with a 214 nm detector and a 4.6×250 mm column (Phenomenex 00G-4167-E0) packed with butylsilyl silica gel with a granulometry of 5 μm and a porosity of 30 nm, maintained at 45° C. The flow rate was maintained at 0.5 mL min^−1. 15 μL of aqueous samples of human growth hormone (typically 1-2.5 mg mL^−1) were injected. Results were expressed as % of peak area corresponding to the gamma irradiated sample with respect to that measured in non-irradiated sample.

[2] = cited from earlier work; for Rate constant k: Table 1, singlet oxygen scavengers, measured in specified solvents
catalase = target: T3, catalase (Bos taurus, UniProt P00432); test: Activity recovery of catalase in dry formulations following gamma irradiation; type: physicochemical, bovine; details: Table 6, singlet oxygen scavengers; catalase 100 μg mL^−1 prior to drying; dry; 25-40 kGy, ambient temperature
T3 construct: Catalase (from bovine liver, Sigma C9322, 2380 U /mg solid); purchased Sigma C9322; host or cells: bovine liver
T3 sequence (P00432 2-527 limits assumed): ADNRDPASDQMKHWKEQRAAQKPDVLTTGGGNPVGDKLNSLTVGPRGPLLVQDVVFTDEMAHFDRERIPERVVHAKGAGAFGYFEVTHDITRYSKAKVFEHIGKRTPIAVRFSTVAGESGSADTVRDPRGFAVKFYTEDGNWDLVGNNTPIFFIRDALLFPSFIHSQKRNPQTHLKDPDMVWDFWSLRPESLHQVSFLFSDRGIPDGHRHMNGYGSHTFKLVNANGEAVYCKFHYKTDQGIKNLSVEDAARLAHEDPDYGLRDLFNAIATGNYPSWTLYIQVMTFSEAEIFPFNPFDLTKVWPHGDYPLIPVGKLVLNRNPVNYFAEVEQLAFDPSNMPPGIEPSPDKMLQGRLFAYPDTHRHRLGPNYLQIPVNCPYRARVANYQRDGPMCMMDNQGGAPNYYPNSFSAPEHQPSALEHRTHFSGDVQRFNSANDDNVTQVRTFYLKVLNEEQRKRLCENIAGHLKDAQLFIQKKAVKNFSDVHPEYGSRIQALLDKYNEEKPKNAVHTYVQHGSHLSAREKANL
Method: as §1, §2
The original solutions (i.e. solutions prior to drying) contained 100 μg mL^−1 of catalase and typically the total of 100 mM of protective compounds (i.e. 100 mM in case of a single compound, 50 mM+50 mM in case of two compounds, 33.3 mM+33.3 mM+33.3 mM in the case of three compounds etc.). The solutions were dried and gamma irradiated. Following the gamma irradiation, the samples, both pre- and post-gamma irradiated, were assayed for […] activity. This was performed according to the following procedure:
Water was added to the sample to achieve 100 μg mL^−1 of catalase. 100 μL of the solution was added to a mixture of 18 mL of PBS and 2 mL of hydrogen peroxide (30 mM in water) in a 125 mL polypropylene pot and mixed. The resulting mixture was incubated at room temperature precisely for 30 min. In the meantime, the following reagents were mixed in a plastic cuvette for spectrophotometric measurements: • 2.73 mL of citrate/phosphate buffer (0.1 M, pH 5.0) • 100 μL of tetramethylbenzidine (TMB) (3 mg/mL, dissolved in dimethyl sulphoxide (DMSO)) • 100 μL of lactoperoxidase
Following the 30 min incubation period, 70 μL of the catalase containing mixture was added to the cuvette and absorbance was read in approximately 30 s. The results were expressed as percentage recovery, by reference to the absorbance measured in the fresh samples (i.e. prior to incubation at increased temperature).

Sandostatin = test: Recovery of structural integrity of Sandostatin in dry formulations following gamma irradiation (HPLC); type: physicochemical; details: Table 8, singlet oxygen scavengers, structural integrity by HPLC, excipient:Sandostatin weight ratio 10:1, 25-40 kGy
Method: as §1, §2
Mobile phase A was 0.1 M triethylamine adjusted to pH 2.3 with phosphoric acid. Mobile phase B was acetonitrile. The mobile phases were filtered prior to their use. The following linear gradient was used: time 0: 90% A+10% B; time 35 min: 60% A+40% B. The liquid chromatograph (Agilent 1100 series) was equipped with a 214 nm detector, guard column and a 4.6×150 mm C18 column with a granulometry of 5 μm and a porosity of 30 nm, maintained at ambient temperature. The flow rate was maintained at 1.0 mL min^−1. Injection volume was 50 μL (typically sandostatin at 200 μg mL^−1). Results were expressed as % of main peak area (i.e. area of the peak corresponding to intact sandostatin measured in the gamma irradiated sample with respect to that measured in non-irradiated sample of identical composition). A chromatogram of a standard solution of sandostatin was recorded after every 12 samples to ensure that no drift in the position of the major peak had occurred. The control measurements ruled out any ambiguity in interpreting the chromatograms.

human growth hormone [3] = target: T2, human growth hormone; test: Recovery of structural integrity of human growth hormone in dry formulations following gamma irradiation (HPLC); type: physicochemical; details: as excipient in the formulation, disulphide bridge, HPLC
[4] = Table 5, singlet oxygen scavengers

T2 sequence (P01241 27-217): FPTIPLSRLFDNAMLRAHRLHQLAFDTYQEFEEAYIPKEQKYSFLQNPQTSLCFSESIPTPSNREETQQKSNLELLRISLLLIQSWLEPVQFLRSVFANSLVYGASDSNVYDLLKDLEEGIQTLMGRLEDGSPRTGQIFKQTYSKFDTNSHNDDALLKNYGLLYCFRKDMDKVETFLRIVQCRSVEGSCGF
T1 sequence (P13006 17-605): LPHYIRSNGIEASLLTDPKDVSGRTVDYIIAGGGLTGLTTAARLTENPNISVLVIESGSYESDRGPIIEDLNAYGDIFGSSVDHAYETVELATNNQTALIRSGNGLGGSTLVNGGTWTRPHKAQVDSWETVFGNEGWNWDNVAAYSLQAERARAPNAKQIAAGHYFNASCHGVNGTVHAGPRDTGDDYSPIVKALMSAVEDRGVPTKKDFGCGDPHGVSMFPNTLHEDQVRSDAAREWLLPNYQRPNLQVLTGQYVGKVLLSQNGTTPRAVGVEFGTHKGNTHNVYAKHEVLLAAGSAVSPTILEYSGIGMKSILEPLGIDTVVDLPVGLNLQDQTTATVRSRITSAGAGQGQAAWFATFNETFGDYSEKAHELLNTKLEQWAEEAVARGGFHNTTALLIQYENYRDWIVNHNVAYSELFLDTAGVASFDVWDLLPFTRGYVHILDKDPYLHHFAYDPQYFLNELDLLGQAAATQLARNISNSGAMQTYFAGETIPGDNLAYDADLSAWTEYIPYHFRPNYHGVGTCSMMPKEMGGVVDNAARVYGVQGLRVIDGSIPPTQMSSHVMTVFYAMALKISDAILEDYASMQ

SMILES	Enzyme activity remaining after gamma-irradiation (glucose oxidase; [4]) [%]	Structural integrity remaining after gamma-irradiation (HPLC) (human growth hormone [1]) [%]	Rate constant k [2]	Rate of reaction with singlet oxygen ([2]; Table 5) [M⁻¹ s⁻¹]	Rate of reaction with singlet oxygen ([2]; Table 6) [M⁻¹ s⁻¹]	Rate of reaction with singlet oxygen ([2]; Table 7) [M⁻¹ s⁻¹]	Rate of reaction with singlet oxygen ([2]; Table 8) [M⁻¹ s⁻¹]	Enzyme activity remaining after gamma-irradiation (catalase) [%]	Enzyme activity remaining after gamma-irradiation (Sandostatin) [%]	Enzyme activity remaining after gamma-irradiation (glucose oxidase; Table 3, prior-art antioxidants, vs non-irradiated) [%]	Compatibility of the compound with human growth hormone (human growth hormone [3])	Compatibility of the compound with human growth hormone (human growth hormone [3]; listed as cysteine)	Compatibility of the compound with glucose oxidase (glucose oxidase; as excipient in the formulation)	Compatibility of the compound with human growth hormone (human growth hormone [3]; listed as N-acetylcysteine)
N[C@@H](Cc1c[nH]cn1)C(=O)O [Histidine]	57.9	55.5	k = 4.6 × 10^7 L mol^−1 s^−1	4.6e+07	4.6e+07	4.6e+07	4.6e+07	18.3	85.0					
N[C@@H](CS)C(=O)O [Cysteine]			k = 5 × 10^7 L mol^−1 s^−1							49.1	**Compound was found incompatible with human growth hormone	incompatibility with human growth hormone		
CC(=O)N[C@@H](CS)C(=O)O [N-Acetylcysteine]											**Compound was found incompatible with human growth hormone		**Compound was found incompatible with glucose oxidase	incompatibility with human growth hormone
N[C@@H](Cc1c[nH]c2ccccc12)C(=O)O [Tryptophan]	37.0	54.6	k = 1.3 × 10^7 L mol^−1 s^−1	1.3e+07	1.3e+07	1.3e+07	1.3e+07	9.1	82.2					
